The source of these data is article PMC10296238, “A Magnetic-Bead-Based Immunoassay with a Newly Developed Monoclonal Antibody for Rapid and Highly Sensitive Detection of Forchlorfenuron” (Biosensors, 2023).

The subject of series [1] is anti-CPPU mAb 14G1. Description: conventional indirect competitive ELISA (icELISA) based on mAb 14G1. The class given is binding, mouse. The note with it: for icELISA CR: CR = IC50 of CPPU/IC50 of analyte × 100%. The method, then:
A conventional icELISA was developed for CPPU detection as follows: 0.5 μg/mL CPPU–BSA was dropped into the 96-well microplate (100 μL/well) and incubated overnight at 4 °C. The plates were blocked at 37 °C with 5% skim milk in PBST (PBS containing 0.05% Tween 20) for 1 h. After washing the plate with PBST three times, 50 μL of mAb 14G1 and 50 μL of sequentially diluted CPPU standard solution were added. The plate was incubated for 1 h at 37 °C, washed three times, and 100 μL/well of goat anti-mouse lgG-HRP solution was added for another 1 h of incubation. After washing six times, 100 μL/well of TMB substrate was added to the plate and reacted for 15 min. Finally, 2 M H2SO4 (50 μL/well) was added into the plate to stop the reaction, and the OD450 value was read with a microplate reader.
(§1) The cross-reactivities (CRs) of the developed MB-based assay and icELISA with compounds structurally related to CPPU were used to evaluate the selectivity of the assays. The CR value of each compound was calculated as follows: CR (%) = (IC50 of CPPU/IC50 of analyte) × 100%.
The experimental conditions of conventional icELISA were optimized. The evaluation criteria were the 50% inhibition concentration (IC50; representing the sensitivity) and maximum absorbance (ODmax) of the negative control. The working concentrations of the CPPU–BSA conjugate and mAb 14G1 were primarily optimized by a checkerboard titration. The concentration of CPPU–BSA coated in the plate was diluted from 2.0 μg/mL to 0.25 μg /mL, and anti-CPPU mAb 14G1 was diluted in a series of two-fold dilutions from 1:2000. […] After optimization, the concentrations of CPPU–BSA and mAb 14G1 were 0.5 μg/mL and 0.016 μg/mL for icELISA (Figure S2a). Then, the process parameters of icELISA were optimized through single-factor experiments. The influence of blocking reagents commonly used in ELISA systems, OVA, skim milk, and BSA, were evaluated and compared for their effectiveness in reducing nonspecific binding. Finally, 5% skim milk was selected, which gave a minimum IC50 value (Figure S2b). CPPU is a lipophilic, small organic compound, and methanol has been reported to be a more acceptable co-solvent for CPPU during the immunochemical reaction. The effect of methanol concentration on immunoassay performance was assessed. […] The ionic strength of 136 mM, which provided the lowest IC50 value, was selected. The pH value is one of the key factors influencing the characteristics of the assay. From Figure S2e, the value of pH 7.4 was selected as the optimum for the assay based on the favorable IC50 value. Under the optimal assay conditions, an indirect competitive ELISA standard curve was established (Figure 3). […] Moreover, the assay has a linear range (IC20–IC80) of 0.005–0.231 ng/mL.
In general terms: ELISA stands for enzyme-linked immunosorbent assay.

Series [2] relates to anti-CPPU mAb 14G1–HRP. Put plainly: direct competitive magnetic-bead (MB)-based assay with mAb 14G1–HRP. In kind it is binding, mouse. The note with it: for MB-Based Assay CR: CR = IC50 of CPPU/IC50 of analyte × 100%. The method, then: A direct competitive MB-based assay was developed as follows. First, the 96-well microtiter plate was pre-sealed with 5% skim milk at 37 °C for 1 h. After washing with PBST, MB–CPPU–BSA (10 μg/μL, 10 μL per well) was added to the 96-well plate. Subsequently, 50 μL of serially diluted CPPU standards and 50 μL of diluted mAb–HRP (1:3200) were mixed into the wells. The plate was shaken well and incubated at 37 °C for 20 min and then placed on a magnetic base to precipitate the MB. Then, the supernatant was discarded, and the plate was washed three times with PBST. After washing, TMB substrate (100 μL per well) was added and incubated for 15 min at 37 °C. The reaction was stopped with 2 M H2SO4, and the absorbance was measured at a wavelength of 450 nm.
The reaction parameters greatly influence assay sensitivity. Therefore, the experimental parameters including concentrations of MB–CPPU–BSA and mAb–HRP, ionic strength, pH value, and organic solvent content in buffer were investigated to improve the sensitivity of the MB-based assay. After optimization, the standard curve for the MB-based assay was generated by plotting the B/B0 (B and B0 were defined as the OD450 in the presence and absence of CPPU, respectively) against the logarithm of CPPU concentration. The 50% inhibitory concentration value (IC50) calculated from the curves was used to evaluate assay sensitivity.
as §1
To obtain better analytical performance of the MB-based assay, the reaction conditions were investigated. First of all, the working concentrations of MB–CPPU–BSA and mAb 14G1–HRP were determined by checkerboard titration as 0.1 mg/mL and 1:6400 dilution, respectively (Table S1). Then, the influence of other parameters on the assay was also optimized, in which the IC50 value was used as the main criterion. The effects of different ionic strengths and different pH values of the PBS solution on antigen–antibody binding in the MB-based assay were evaluated (Figure S4a,b). […] The optimal methanol concentration was selected to be 5% for the lower IC50. To shorten the detection duration, the incubation time for the competitive reaction between MB–CPPU–BSA and free-CPPU for binding to mAb–HRP tracer was optimized in sequence. […] Shorter incubation times may result in insufficient antigen–antibody binding, while longer incubation times not only further increased the maximum intensity but also led to higher background signals from non-specific binding. Therefore, incubation was stopped after 20 min, and beads were washed to remove unbound antibody.

The subject of series [3] is anti-CPPU mAb 14G1–HRP. Described as above. In kind it is binding, mouse.
Series [4] deals with mAb (s5#34). Conditions: cited from earlier work.
The test system of series [5] is mAb, P6#42. The note with it: cited from earlier work.
Series [6] relates to mAb. The note with it: cited from earlier work.
The test system of series [7] is mAb against CPPU. The note with it: cited from earlier work.
For series [8], the system named is pAb. On the set-up: method as in earlier work. Conditions: cited from earlier work.
For series [9], the system named is rats. Conditions: cited from earlier work.
The test system of series [10] is zebrafish. Conditions: cited from earlier work.

In brackets after ≈: the same amount, converted by molar mass.

Regarding `Cc1ccc(NC(=O)N(C)C)cc1Cl` [Chlorotoluron], in series [1], the “icELISA CR” value is less than 1.0%. Besides, in series [1] (optimal assay conditions), the “icELISA IC50” value is reported as greater than 2.5 ng/mL. In addition, the “MB-Based Assay CR” value in series [2] is less than 0.6%. For the same compound, in [2] (optimized conditions), the “MB-Based Assay IC50” value is given as greater than 1.0 ng/mL.
The corresponding values for `Clc1ccccc1-c1nnc(-c2ccccc2Cl)nn1` [Clofentezine] are less than 1.0%, greater than 2.5 ng/mL, less than 0.6% and greater than 1.0 ng/mL.
On the same counts, the results for `CN(C)C(=O)Nc1ccc(Cl)c(Cl)c1` [Diuron] are less than 1.0%, greater than 2.5 ng/mL, less than 0.6% and greater than 1.0 ng/mL.
Consider `O=C(Nc1ccccc1)Nc1ccnc(Cl)c1` [Forchlorfenuron (CPPU), Forchlorfenuron], for which, in [1] (5% methanol, Figure S2c), the “icELISA IC50 during optimization” value stood at 0.0372 ng/mL. Also, the “icELISA CR” value in [1] came to 100%. Besides, in [1] (optimal assay conditions), the “icELISA IC50” value is recorded as 0.0253 ng/mL; the “icELISA limit of detection (LOD, IC10)” value came to 0.002 ng/mL; the “icELISA linear range (IC20–IC80)” value was in the range of 0.005 to 0.231 ng/mL. Besides, the “MB-Based Assay CR” value in [2] is 100%. Also, the “estimated LOD in grape, MB-based assay” value in series [2] (grape, considering dilution factor of the sample (100-fold)) was 0.0168 µg/kg. The “estimated LOD in kiwifruit, MB-based assay” value in series [2] (kiwifruit, considering dilution factor of the sample (100-fold)) is 0.0191 µg/kg. Also, in series [2] (optimized conditions), the “MB-Based Assay IC50” value is recorded as 0.0061 ng/mL, the “MB-based assay LOD” value is 0.0004 ng/mL and the “MB-based assay linear detection range (IC20–IC80)” value is 0.0016 to 0.0259 ng/mL. Besides, in series [3] (mAb-HRP 1:400, MB-CPPU-BSA 0.0125 μg/μL), the “IC50, MB-based assay optimization” value turned out to be 0.0315 ng/mL (≈ 0.127 nM). For the same compound, the “IC50, MB-based assay optimization” value in series [3] (mAb-HRP 1:800, MB-CPPU-BSA 0.025 μg/μL) amounted to 0.0147 ng/mL (≈ 0.0593 nM). For the same compound, the “IC50, MB-based assay optimization” value in [3] (mAb-HRP 1:1600, MB-CPPU-BSA 0.05 μg/μL) is listed as 0.0139 ng/mL (≈ 0.0561 nM). Also, the “IC50, MB-based assay optimization” value in series [3] (mAb-HRP 1:3200, MB-CPPU-BSA 0.10 μg/μL) is 0.0132 ng/mL (≈ 0.0533 nM). Moreover, the “IC50, MB-based assay optimization” value in [3] (mAb-HRP 1:6400, MB-CPPU-BSA 0.20 μg/μL) was found to be 0.0140 ng/mL (≈ 0.0565 nM). Also, the “dcELISA (mAb) LOD” value in series [4] is listed as 0.01 ng/mL. Also, the “dcELISA IC50” value in [4] (in buffer) was 0.063 ng/mL. In [5], the “LFIA IC50” value is 0.286 ng/mL, the “LFIA LOD” value is on record as 0.045 ng/mL and the LFIA linear range is 0.089 to 0.916 ng/mL. In [6], the “icELISA (mAb) LOD” value is 0.013 ng/mL and the “icELISA (mAb) linear range” value is 0.022 to 0.156 ng/mL. Besides, in series [7], the “icELISA IC50” value is given as 1.04 ng/mL, the “icELISA LOD” value is given as 0.16 ng/mL and the icELISA linear range is 0.31 to 3.43 ng/mL. In series [8], the “dcELISA (pAb) IC50” value is given as 0.077 ng/mL, the “dcELISA (pAb) LOD” value is 0.012 ng/mL and the “dcELISA (pAb) linear range” value is reported as 0.025-0.276 ng/mL. Further, in series [9], the “toxic effects in rats” value is “potential adverse effects on the ovaries and on the production of steroid hormones”. In [10], the “toxic effects in zebrafish” value was “cardiac morphology deformation, cardiac contractile dysfunction, and erythrocyte reduction”.
With `CON(C)C(=O)Nc1ccc(Cl)c(Cl)c1` [Linuron], the “icELISA CR” value in series [1] was less than 1.0%. Moreover, the “icELISA IC50” value in series [1] (optimal assay conditions) is on record as greater than 2.5 ng/mL. The “MB-Based Assay CR” value in [2] is given as less than 0.6%. Also, the “MB-Based Assay IC50” value in series [2] (optimized conditions) is given as greater than 1.0 ng/mL.
Turning to `O=C(Nc1ccccc1)Nc1cnns1` [Thidiazuron], the entries for the “icELISA CR” value in series [1] and in series [1] (listed as thidiazuron) were less than 1.0% and “negligible cross-reaction”, respectively. The “icELISA IC50” value in series [1] (optimal assay conditions) was greater than 2.5 ng/mL. Moreover, the “MB-Based Assay CR” value in series [2] is recorded as less than 0.6%; in series [2] (listed as thidiazuron) it was “negligible cross-reaction”. In series [2] (optimized conditions), the “MB-Based Assay IC50” value is greater than 1.0 ng/mL. Moreover, the “dcELISA cross-reactivity (CR)” value in series [4] (mAb s5#34) is recorded as 71%.
